How the values were obtained:
[1] = system: homovanillinic acid (HVA); experiment: Determination of homovanillinic acid (HVA) in brains of treated rats; dopamine turnover in the basal ganglions; type: in vivo; details: for Increase of HVA, %: two hours before killing, untreated rats set at 100%; for activity in HVA test compared with chlorpromazine (in words): p.o., in comparison to chlorpromazine
Description: I. determination of Homovanillinic Acid
Two hours prior to being killed, rats are injected with the test substance.
Thereafter, the homovanillinic acid is extracted from the supernatent portion of a homogenized mixture of brains of the treated rats into butylacetate and later into an aqueous solution and is oxidized with potassium ferric cyanide to a fluorescent […]. […] The homovanillinic titer in untreated rats is arbitrarily set at 100%.

in vivo = details: rats, intraperitoneal; for ED50 at 6 h: rat, in vivo, ip, observed every 30 minutes over a 6-hour period, cataleptic = homolateral extremities crossed at least 10 seconds, read-out: ED50 (dose at which 50% of the animals are cataleptic); for cataleptic effect (in words): in comparison to chlorpromazine
Description: The following compounds were tested:
The foregoing compounds were compared to chlorpromazine, a well-known central depressant, especially well-known as a neuroleptic agent. The test animals are considered to be cataleptic when the homolateral extremities remain in the crossed position for at least 10 seconds. The number of cataleptic animals is recorded every 30 minutes over a 6-hour period.

COc1ccc2c(c1)Sc1ccc(Cl)cc1C(C#CCN(C)C)=C2.CS(=O)(=O)O [Product C, N,N-dimethyl-3-(8-chloro-3-methoxydibenzo[b,f]thiepin-10-yl)-2-propynylamine methanesulfonate]
Increase of HVA, % ([1]; 30 mg/kg p.o.): 320%
activity in HVA test compared with chlorpromazine (in words) [1]: as strong an activity as chlorpromazine
ED50 at 6 h (in vivo): > 100 mg/kg
cataleptic effect (in words) (in vivo): no or, respectively, very weak cataleptic effect

CN(C)CC#CC1=Cc2ccccc2Sc2ccc(Cl)cc21.O=C(O)/C=C\C(=O)O [Product B, N,N-dimethyl-3-(8-chloro-dibenzo[b,f]thiepin-10-yl)-2-propynylamine maleate]
Increase of HVA, % ([1]; 50 mg/kg p.o.): 370%
activity in HVA test compared with chlorpromazine (in words) [1]: as strong an activity as chlorpromazine
ED50 at 6 h (in vivo): 100 mg/kg
cataleptic effect (in words) (in vivo): no or, respectively, very weak cataleptic effect

CSc1ccc2c(c1)C(C#CCN(C)C)=Cc1ccccc1S2.O=C(O)/C=C\C(=O)O [Product A, N,N-dimethyl-3-[8-(methylthio)-dibenzo[b,f]thiepin-10-yl]-2-propynylamine maleate]
Increase of HVA, % ([1]; 50 mg/kg p.o.): 330%
activity in HVA test compared with chlorpromazine (in words) [1]: as strong an activity as chlorpromazine
ED50 at 6 h (in vivo): > 100 mg/kg
cataleptic effect (in words) (in vivo): no or, respectively, very weak cataleptic effect

CN(C)CCCN1c2ccccc2Sc2ccc(Cl)cc21 [Chlorpromazine, reference compound]
Increase of HVA, % ([1]; 20 mg/kg p.o.): 321%
ED50 at 6 h (in vivo): 6 mg/kg
cataleptic effect (in words) (in vivo): does demonstrate cataleptic effects
